Values quoted from earlier work in US20070092573A1, “STABILIZED EXTENDED RELEASE PHARMACEUTICAL COMPOSITIONS COMPRISING A BETA-ADRENORECEPTOR ANTAGONIST” (priority 2005, published 2007).

COCCc1ccc(OCC(O)CNC(C)C)cc1 (stereo not shown) [Metoprolol Succinate]
water solubility: highly water-soluble
